Publication PMC2606922 (Molecular pharmacology, 2008)

Legend:
[1] = target: adult mouse receptors with two δ-subunits (lacking the ε-subunit) (Mus musculus, UniProt P02716+P04756); test: outside-out patch clamp, relative peak current; type: biochemical; conditions: 300 μM ACh, -50 mV, 22-25°C, pH 7.3
[2] = target: adult mouse muscle nAChR, (α1)2β1εδ (Mus musculus, UniProt P02716+P04756+P20782); test: outside-out patch clamp, relative peak current; type: biochemical; conditions: 300 μM ACh, -50 mV, 22-25°C, pH 7.3
Chain of adult mouse muscle nAChR, (α1)2β1εδ (P04756 21-457): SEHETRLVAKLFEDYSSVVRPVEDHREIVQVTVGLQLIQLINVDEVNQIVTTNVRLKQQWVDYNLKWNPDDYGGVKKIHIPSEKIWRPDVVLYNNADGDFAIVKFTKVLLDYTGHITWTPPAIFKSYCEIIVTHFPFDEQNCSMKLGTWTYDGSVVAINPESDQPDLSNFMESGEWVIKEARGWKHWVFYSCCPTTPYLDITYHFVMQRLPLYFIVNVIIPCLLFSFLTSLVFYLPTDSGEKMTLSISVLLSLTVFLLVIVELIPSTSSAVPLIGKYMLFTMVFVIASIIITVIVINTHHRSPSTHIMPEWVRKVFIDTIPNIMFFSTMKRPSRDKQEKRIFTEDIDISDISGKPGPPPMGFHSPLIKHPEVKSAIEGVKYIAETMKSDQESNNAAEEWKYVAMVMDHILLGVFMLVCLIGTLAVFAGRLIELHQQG
Chain of adult mouse muscle nAChR, (α1)2β1εδ (P20782 21-493): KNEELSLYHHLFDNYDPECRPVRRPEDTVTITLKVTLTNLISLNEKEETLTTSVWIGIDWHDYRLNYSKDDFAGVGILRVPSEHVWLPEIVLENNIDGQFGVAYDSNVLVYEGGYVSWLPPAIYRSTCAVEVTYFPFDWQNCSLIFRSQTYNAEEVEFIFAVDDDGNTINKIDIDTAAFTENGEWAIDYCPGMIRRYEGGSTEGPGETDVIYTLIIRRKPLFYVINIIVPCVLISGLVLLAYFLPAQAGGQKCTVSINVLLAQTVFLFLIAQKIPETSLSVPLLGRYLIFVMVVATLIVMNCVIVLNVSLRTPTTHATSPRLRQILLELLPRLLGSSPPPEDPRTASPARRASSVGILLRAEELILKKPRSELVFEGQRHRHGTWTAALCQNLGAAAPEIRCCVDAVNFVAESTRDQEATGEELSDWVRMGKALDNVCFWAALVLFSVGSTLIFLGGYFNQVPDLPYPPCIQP
Chain of adult mouse muscle nAChR, (α1)2β1εδ (P02716 25-520): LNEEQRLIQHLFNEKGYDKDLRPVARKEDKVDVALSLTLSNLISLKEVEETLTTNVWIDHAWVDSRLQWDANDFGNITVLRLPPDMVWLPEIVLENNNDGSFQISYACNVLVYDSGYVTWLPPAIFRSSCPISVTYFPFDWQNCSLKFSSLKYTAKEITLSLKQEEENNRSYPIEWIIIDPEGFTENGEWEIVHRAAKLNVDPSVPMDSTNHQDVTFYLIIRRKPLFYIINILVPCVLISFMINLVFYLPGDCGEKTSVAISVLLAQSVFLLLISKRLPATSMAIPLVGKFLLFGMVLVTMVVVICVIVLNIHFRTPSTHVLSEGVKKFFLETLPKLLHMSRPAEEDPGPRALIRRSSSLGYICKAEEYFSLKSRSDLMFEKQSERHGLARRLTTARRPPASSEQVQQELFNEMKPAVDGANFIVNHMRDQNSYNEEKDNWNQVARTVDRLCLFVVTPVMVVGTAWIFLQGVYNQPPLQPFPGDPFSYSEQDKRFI
Chain of adult mouse muscle nAChR, (α1)2β1εδ (P09690 24-501 partner): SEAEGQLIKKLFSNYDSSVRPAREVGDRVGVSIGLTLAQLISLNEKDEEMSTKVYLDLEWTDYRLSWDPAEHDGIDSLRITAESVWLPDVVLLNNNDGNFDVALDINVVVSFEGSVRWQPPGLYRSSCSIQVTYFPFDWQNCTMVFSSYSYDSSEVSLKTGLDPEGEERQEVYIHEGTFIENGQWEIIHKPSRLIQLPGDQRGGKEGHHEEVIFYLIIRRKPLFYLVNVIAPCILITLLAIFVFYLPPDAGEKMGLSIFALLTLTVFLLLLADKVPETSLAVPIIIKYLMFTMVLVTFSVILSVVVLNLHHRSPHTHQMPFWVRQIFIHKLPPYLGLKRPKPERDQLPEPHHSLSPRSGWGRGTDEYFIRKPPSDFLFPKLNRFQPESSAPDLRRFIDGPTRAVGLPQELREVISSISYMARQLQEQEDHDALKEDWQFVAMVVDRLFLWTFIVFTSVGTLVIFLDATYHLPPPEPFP

Chain of adult mouse receptors with two δ-subunits (lacking the ε-subunit) (P04756 21-457): as the sequence (P04756 21-457) above
Chain of adult mouse receptors with two δ-subunits (lacking the ε-subunit) (P02716 25-520): as the sequence (P02716 25-520) above
Chain of adult mouse receptors with two δ-subunits (lacking the ε-subunit) (P09690 24-501 partner): as the sequence (P09690 24-501 partner) above

SMILES: C=CC[N+]1([C@H]2C[C@H]3[C@@H]4CC[C@H]5C[C@H](O)[C@@H](N6CCOCC6)C[C@]5(C)[C@H]4CC[C@]3(C)[C@H]2OC(C)=O)CCCC1 [rocuronium]
- current relative to control at 40 nM [1]: 0.16 ± 0.01
- current relative to control at 40 nM [2]: 0.32 ± 0.05
